Measurements published in patent US7129073B2, “Regulation of neuronal function through metabotropic glutamate receptor signaling pathways” (The Rockefeller University, priority 2001, dated 2006).
Entries after “also recorded” stand apart in the source; their conditions may differ.

Legend:
[1] = test system: Cdk5; assay: Cdk5 kinase activity immunoprecipitated from neostriatal slices, histone H-1 as substrate; format: cell-based, mouse
Experimental: (§1) Neostriatal slices were prepared from male C57/BL6 mice (6–8 weeks old) in accordance with methods known in the art (Nishi, A. et al. 1997, J. Neurosci. 17:8147–8155). Slices were treated with a drug. After drug treatment, slices were immediately frozen in liquid nitrogen, and stored at −80° C. until assayed.
For Cdk5 immunoprecipitation, striatal tissue slices (approximately 150 μg total protein) were lysed using a Dounce homogenizer and 1 ml of lysis buffer (150 mM NaCl, 20 mM Tris-HCl (pH 7.4), 1 mM EDTA, 0.5% NP-40, 5 mM NaF, 5 mM Na3PO4 and protease inhibitors). Lysates were centrifuged at 10,000 g for 10 minutes at 4° C. Supernatants were pre-cleared by adding rabbit IgG-conjugated agarose for 40 minutes at 4° C. Ten μl of Cdk5 antibody conjugated to agarose were added and samples were incubated for 1 hour at 4° C. with mixing. Agarose pellets were collected and washed three times with 1 ml of lysis buffer and two times with kinase assay buffer (50 mM Hepes (pH 7.5), 10 mM MgCl2, 1 mM DTT). Cdk5 kinase assays were performed in a 30-μl reaction mixtures with 2 μg Histone H-1, 500 μM ATP and 5 μCi of γ-^32P-ATP. Samples were incubated at 30° C. for 10 minutes, reactions were stopped by addition of SDS-sample buffer, and samples were boiled for 5 minutes. Samples were separated by SDS-PAGE and analyzed as disclosed above for CKI assays. Data were analyzed by Student's t-test in Microsoft Excel software as indicated, with significance defined as p<0.05.
CK1 assays were performed in a 30 μl assay volume with 2 μg of purified DARPP-32, 500 μM ATP and 5 μCi γ-^32P-ATP. Reactions were started by addition of the ATP. Samples were incubated at 30° C. for 10 min and reactions were stopped by addition of SDS-sample buffer and boiled for 5 min. Samples were separated by SDS-PAGE (12% polyacrylamide). SDS-PAGE gels were dried and exposed to Kodak film for autoradiography. Results were quantified using a Molecular Dynamics PHOSPHORIMAGER™. Immunoprecipitation and assay of Cdk5 were performed as disclosed (20).

[2] = test system: Thr75 of DARPP-32 (Cdk5 site); assay: DARPP-32 phospho-Thr75 immunoblot in neostriatal slices; format: cell-based, mouse
Experimental: as §1
(§2) Frozen slices were sonicated in hot homogenization buffer containing 1% SDS and 50 mM NaF, and samples were boiled for 10 minutes. SDS-PAGE sample buffer was then added and samples were boiled for 5 minutes. Samples (approximately 120 μg of total protein) were separated by SDS-PAGE (10% polyacrylamide) and then transferred to nitrocellulose. In most studies, immunoblots were first probed with anti-phospho-Ser137 DARPP-32 antibody. The blots were then stripped and probed with anti-phospho-Thr75 DARPP-32 antibody. Blots were stripped again and probed with anti-total DARPP-32 antibody. […] Chemiluminescence was detected by autoradiography and bands were quantified by analysis of scanned images using NIH IMAGE 1.52 software. Data were statistically analyzed by Student's t test in Microsoft EXCEL™ software as indicated.
(§3) Neostriatal slices were prepared from male C57/BL6 mice (6–8 weeks old) as disclosed (22). Slices were treated with drugs as specified in the text and figure legends. After drug treatment, slices were immediately frozen in liquid nitrogen, and stored at −80° C. until assayed.
(§4) Frozen slices were sonicated in hot homogenization buffer containing 1% SDS and 50 mM NaF, and samples were boiled for 10 min. SDS-PAGE sample buffer was then added and samples were boiled for 5 min. Samples (approximately 120 μg protein) were separated by SDS-PAGE (10% polyacrylamide) and transferred to nitrocellulose. Immunoblots were first probed with antiphospho-Ser-137 DARPP-32 antibody. The blots were stripped and probed with anti-phosphoThr-75 DARPP-32 antibody. Blots were stripped again and probed with anti-total DARPP-32 antibody. Antibody binding was detected by enhanced chemiluminescence (ECL) using X-ray film, and images were analyzed by laser scanning densitometry using NIH Image 1.52 software. Data were statistically analyzed by Student's t-test using Microsoft EXCEL™ software as indicated.

[3] = test system: Ser137 of DARPP-32 (CK1 site); assay: DARPP-32 phospho-Ser137 immunoblot in neostriatal slices; format: cell-based, mouse
Experimental: as §1, §2, §3, §4

[4] = test system: MM2-CK1ε; assay: phosphopeptide mapping of MM2-CK1ε in N2a cells; format: cell-based; details: DHPG 2 min
Experimental: Twenty-four hours after transfecting N2a cells with CK1ε expression plasmids, cells were incubated in 200 μCi/ml (NEN) ^32P-inorganic phosphate and phosphate-free serum-free DMEM for 2 h. […] Cells were treated with DHPG for various periods of time as indicated, harvested by lysis in RIPA buffer and clarified by centrifugation at 14,000×g for 10 min. Soluble extracts containing HA- or Myc-tagged proteins were immunoprecipitated with 12CA5 or 9E10 monoclonal antibody and protein A-agarose. The immunoprecipitates were eluted from the protein A-agarose and separated by SDS-PAGE on 10% gel. Proteins were stained briefly with Coomassie Brilliant Blue, the gels were dried, and the labeled proteins were visualized by autoradiography.
Radiolabeled protein bands were excised, rehydrated, de-stained and dried in a speedvac. The gel slices were minced and rehydrated in 75 μg/ml TPCK/trypsin in 50 mM NH4CO3H (1 ml final volume) for 24 h at 37° C. The supernatant was removed from the gel slices and then lyophilized to dryness. Recovery of tryptic phosphopeptides was determined by Cerenkov counting. The two-dimensional peptide mapping method was used to separate phosphopeptides (23). Lyophilized tryptic peptides were suspended in 10 μl of electrophoresis buffer (10% acetic acid and 1% pyridine, pH 3.5) and spotted onto thin-layer cellulose plates (20×20 cm, Analtech). […]

[5] = 50 μM CKI-7, 30 min before DHPG 2 min
[6] = CKI-7 100 to 300 μM, 30 min before DHPG 2 min
[7] = DHPG 100 μM, group I mGluR activation
[8] = slices treated with drug alone: DHPG 100 μM, ionomycin 2 μM

effect of pretreatment on the effect of DHPG on Cdk5 kinase activity ([1]; CKI-7 dose-dependent, U73122 10 μM, BAPTA/AM 20 μM, cyclosporin A 5 μM) | SMILES | effect on basal or DHPG-stimulated DARPP-32 phosphorylation at Thr75 [2, 5] | effect on basal and DHPG-stimulated DARPP-32 phosphorylation at Thr75 [2, 6] | effect on basal or DHPG-stimulated DARPP-32 phosphorylation at Ser137 [3, 5] | effect on basal and DHPG-stimulated DARPP-32 phosphorylation at Ser137 [3, 6] | effect on Cdk5 kinase activity ([1]; DHPG treatment of slices) | increase in Cdk5 activity ([1]; DHPG, after 2 minutes, back to basal level after 5 minutes) | increase in phosphorylation of Thr75 [2, 7] | effect on phosphorylation of Thr75 in DARPP-32 [2, 8] | effect on phosphorylation of MM2-CK1ε [4] | increase in phosphorylation of Ser137 [3, 7] | time of peak level of phosphorylation of Ser137 ([3]; DHPG 100 μM, back to basal level by 5 minutes) | effect on phosphorylation of Ser137 in DARPP-32 [3, 8]
attenuated | NCCNS(=O)(=O)c1ccc(Cl)c2ccncc12 [CKI-7] | little effect | dose-dependent decreases | little effect | dose-dependent decreases | – | – | – | – | – | – | – | –
– | N[C@H](C(=O)O)c1cc(O)cc(O)c1 [DHPG, (S)-3,5-Dihydroxyphenylglycine] | – | – | – | – | rapid but transient increase; also recorded: increased | approximately 4 fold | 2–3 fold | rapid but transient increase | no effect | 2–3 fold | 2 min | rapid but transient increase
